Test results published in patent US20100210559A1, “TRAP-14 AS A THERAPEUTIC AGENT” (priority 2007, published 2010).
No end group written: not given here.

What was measured:
in vitro = conditions: human, HepG2-2.2.15 cells
Protocol: HepG2-2.2.15 cells were plated in 96-well microtiter plates. After 16-24 hours the confluent monolayer of HepG2-2.2.15 cells was washed and the medium was replaced with complete medium containing test peptide—10 micrograms per ml—in duplicate. […] Three days later the culture medium was replaced with fresh medium containing the peptide. […] A novel dye uptake assay was then employed to measure cell viability, which is used to calculate toxicity (% cell control).

[1] = Cytotoxicity in MRC-5 cells (CellTiter 96); conditions: human
MRSA = conditions: 5 micrograms per ml
[2] = Cytotoxicity in CEM-SS cells (MTS cell viability); conditions: human
Streptococcus pneumoniae = type: cell-based; conditions: 5 micrograms per ml
Pseudomonas aeruginosa = type: cell-based; conditions: 5 micrograms per ml
HIV-1IIIB = assay: HIV-1 antiviral assay (CPE reduction, MTS); type: cell-based; conditions: peptide 10 micrograms per ml, 6 days post-infection

| Compound | viability at 144 h, 10 micrograms per ml (in vitro) | viability at 144 h [1] | % inhibition (MRSA) | viability at 10 micrograms per ml [2] | % inhibition (Streptococcus pneumoniae) | % inhibition (Pseudomonas aeruginosa) | % CPE reduction in HIV-1 infected CEM-SS cells (HIV-1IIIB) |
| --- | --- | --- | --- | --- | --- | --- | --- |
| SFLLRNPNDKYEPF-OH [TRAP-14] | 84.5% | 100% | 0.0% | 100% | 0.0% | 0.0% | – |
| Cc1cn([C@H]2C[C@H](N=[N+]=[N-])[C@@H](CO)O2)c(=O)[nH]c1=O [AZT] | – | – | – | – | – | – | 99% |
